Test system: Crude diglycosidase
Test: Examination of pH in the conversion into isoflavone aglycons by diglycosidase using soybean materials
Assay type: biochemical, Penicillium multicolor IAM7153
Set-up: Decomposition efficiency of genistin family in soymilk / Decomposition efficiency of genistin family in defatted soybean / Decomposition efficiency of daidzin family in defatted soybean: concentration or dose not given beside the values
Method in brief: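 HPLC readout: isoflavone glycosides vs aglycons. Substrates: 50 mg soy material (roasted flour, soymilk, defatted bean, concentrated protein), pH 2–11 (HCl/NaOH). Crude diglycosidase solution 1.88 AU/mL, matched pH; 55° C; quenched with ethanol at 0/1/3/6 h; centrifuged 15,000 rpm, 4° C, 10 min.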

O=c1c(-c2ccc(O)cc2)coc2cc(O)cc(O)c12 [genistein]
Decomposition efficiency of genistin family in defatted soybean (pH2.6, heat treatment of enzyme: no, reaction time 1 h): 17.7% | Decomposition efficiency of genistin family in defatted soybean (pH2.6, heat treatment of enzyme: no, reaction time 3 h): 32.7% | Decomposition efficiency of genistin family in defatted soybean (pH2.6, heat treatment of enzyme: no, reaction time 6 h): 34.6% | Decomposition efficiency of genistin family in defatted soybean (pH3.4, heat treatment of enzyme: no, reaction time 1 h): 56.9% | Decomposition efficiency of genistin family in defatted soybean (pH3.4, heat treatment of enzyme: no, reaction time 3 h): 62.5% | Decomposition efficiency of genistin family in defatted soybean (pH3.4, heat treatment of enzyme: no, reaction time 6 h): 68.8% | Decomposition efficiency of genistin family in defatted soybean (pH3.4, heat treatment of enzyme: yes, reaction time 6 h): 14.1% | Decomposition efficiency of genistin family in defatted soybean (pH4.8, heat treatment of enzyme: no, reaction time 0 h): 14.5% | Decomposition efficiency of genistin family in defatted soybean (pH4.8, heat treatment of enzyme: no, reaction time 1 h): 56.1% | Decomposition efficiency of genistin family in defatted soybean (pH4.8, heat treatment of enzyme: no, reaction time 3 h): 61.9% | Decomposition efficiency of genistin family in defatted soybean (pH4.8, heat treatment of enzyme: no, reaction time 6 h): 68.5% | Decomposition efficiency of genistin family in defatted soybean (pH4.8, heat treatment of enzyme: yes, reaction time 6 h): 25.2% | Decomposition efficiency of genistin family in defatted soybean (pH5.4, heat treatment of enzyme: no, reaction time 0 h): 14.5% | Decomposition efficiency of genistin family in defatted soybean (pH5.4, heat treatment of enzyme: no, reaction time 1 h): 51.5% | Decomposition efficiency of genistin family in defatted soybean (pH5.4, heat treatment of enzyme: no, reaction time 3 h): 55.4% | Decomposition efficiency of genistin family in defatted soybean (pH5.4, heat treatment of enzyme: no, reaction time 6 h): 60.3% | Decomposition efficiency of genistin family in defatted soybean (pH5.4, heat treatment of enzyme: yes, reaction time 6 h): 48.0% | Decomposition efficiency of genistin family in defatted soybean (pH6.6, heat treatment of enzyme: no, reaction time 1 h): 49.3% | Decomposition efficiency of genistin family in defatted soybean (pH6.6, heat treatment of enzyme: no, reaction time 3 h): 51.4% | Decomposition efficiency of genistin family in defatted soybean (pH6.6, heat treatment of enzyme: no, reaction time 6 h): 53.7% | Decomposition efficiency of genistin family in defatted soybean (pH6.6, heat treatment of enzyme: yes, reaction time 6 h): 46.4% | Decomposition efficiency of genistin family in defatted soybean (pH7.8, heat treatment of enzyme: no, reaction time 1 h): 36.7% | Decomposition efficiency of genistin family in defatted soybean (pH7.8, heat treatment of enzyme: no, reaction time 3 h): 42.5% | Decomposition efficiency of genistin family in defatted soybean (pH7.8, heat treatment of enzyme: no, reaction time 6 h): 45.7% | Decomposition efficiency of genistin family in defatted soybean (pH7.8, heat treatment of enzyme: yes, reaction time 6 h): 22.0%
